What was measured:
[1] = Stroke statin response (SSR) in the PROSPER pravastatin trial: pravastatin-treated versus placebo-treated, by SNP genotype; type: in vivo, human
[2] = Stroke statin response (SSR) in the CARE pravastatin trial: pravastatin-treated versus placebo-treated, by SNP genotype; type: in vivo, human; details: for HR (hazard ratio for stroke, pravastatin vs placebo): rs10757274 (hCV26505812), mode GEN, genotype AA, placebo = ref
From the text: (hCV26505812) for association with SSR in CARE (Table 37) and PROSPER (Table 38), including both unadjusted and adjusted analyses (adjusted for factors such as age, gender, smoking status, hypertension, diabetes, BMI, and LDL and HDL levels). Table 37 provides results in CARE, and Table 38 provides results in PROSPER (whether each analysis is unadjusted or adjusted is indicated in the “adjust” column in Table 37, or by “unadj” and “adj” column labels in Tables 38). With respect to Tables 22-32 and 37-38, the columns labeled “Genotype” (in Tables 22-28 and 37), “Geno_Placebo” (in Tables 29-30 and 38), and “Geno_Resp” (in Tables 31-32 and 38) indicate the genotype which the given stroke risk or SSR results correspond to. […] See Example Six below for further information relating to Tables 22-32 and 37-38. […] As used herein, the term “benefit” (with respect to a preventive or therapeutic drug treatment) is defined as achieving a reduced risk for a disease that the drug is intended to treat or prevent (e.g., stroke) by administrating the drug treatment, compared with the risk for the disease in the absence of receiving the drug treatment (or receiving a placebo in lieu of the drug treatment) for the same genotype. The term “benefit” may be used herein interchangeably with terms such as “respond positively” or “positively respond”. For stroke risk and statin response associations based on samples from the CARE and PROSPER trials described herein, stroke risk is assessed by comparing the risk of stroke for a given genotype with the risk of stroke for a reference genotype either in the placebo arm of the trial or in the whole study population of the trial, and statin response is assessed by comparing the risk of stroke in the pravastatin arm of the trial with the risk of stroke in the placebo arm of the trial for the same genotype. […] In CARE, SNPs were analyzed for association with stroke risk or SSR. […] Also in the CARE and PROSPER trials, the chromosome 9p21 SNP […] (hCV26505812) was analyzed further for association with SSR, including unadjusted and adjusted analysis. Adjusted analysis in CARE (Table 37) was adjusted for age, gender, smoking status, hypertension, diabetes, body mass index (BMI), and LDL and HDL levels, and adjusted analysis in PROSPER (Table 38) was adjusted for country, gender, age, LDL, HDL, smoking status (current vs. past or never), history of hypertension, and diabetes. Table 37 provides results in CARE, and Table 38 provides results in PROSPER (whether each analysis is unadjusted or adjusted is indicated in the “adjust” column in Table 37, or by “unadj” and “adj” column labels in Tables 38). All the p-values (including Pint values) provided in Tables 37-38 are two-sided p-values.

CC[C@H](C)C(=O)O[C@H]1C[C@H](O)C=C2C=C[C@H](C)[C@H](CC[C@@H](O)C[C@@H](O)CC(=O)O)[C@H]21 [pravastatin]
HR_RESP (hazard ratio, pravastatin-treated versus placebo-treated) ([1]; hCV2091644 rs1010 VAMP8, GENO_RESP CC + CT, MODE DOM, STRATA no hist): 0.786
HR_RESP (hazard ratio, pravastatin-treated versus placebo-treated) ([1]; hCV2169762 rs1804689 HPS1, GENO_RESP GG + GT, MODE REC, STRATA hist): 1.028
HR_RESP (hazard ratio, pravastatin-treated versus placebo-treated) ([1]; hCV2169762 rs1804689 HPS1, GENO_RESP TT + GT, MODE DOM, STRATA no hist): 1.266
EVENTS_RESP ([1]; hCV2169762 rs1804689 HPS1, GENO_RESP TT, MODE GEN, STRATA hist): 5
HR_RESP (hazard ratio, pravastatin-treated versus placebo-treated) ([1]; hCV29539757 rs10110659 KCNQ3, GENO_RESP CC + AC, MODE REC, STRATA hist): 1.009
HR (hazard ratio) for stroke events, pravastatin-treated versus placebo-treated ([2]; heterozygous carriers of SNP rs10757274 (chromosome 9p21), adjusted for traditional risk factors): 0.61
HR (hazard ratio for stroke, pravastatin vs placebo) ([2]; adjusted (age, male, current smoking, hypertension, diabetes, BMI, baseline LDL, HDL)): 0.92
HR (hazard ratio for stroke, pravastatin vs placebo) ([2]; unadjusted): 0.85
EVENTS (number of stroke events) ([2]; rs10757274, adjusted analysis, mode REC, genotype GA + AA, pravastatin arm, total 1018): 47

From patent publication US11401555B2, “Genetic polymorphisms associated with stroke, methods of detection and uses thereof” (CELERA CORPORATION, priority 2008, dated 2022)
